Measured values reported in patent EP0614464B1, “PEPTIDES AND ANTIBODIES FOR TREATMENT OF RHEUMATOID ARTHRITIS” (PEPTIDE THERAPEUTICS LIMITED, priority 1991, dated 1993).
Ends that are not written are not given here.

Key:
[1] = tested on: alternative complement (C3) pathway; test: Inhibition of C3-activation: preventing IgA-α1AT complex from activating the alternative complement pathway, rabbit erythrocyte haemolysis read-out; assay type: biochemical, human; conditions: for C': minimum concentration of peptide needed to prevent C3 activation; for C' minimum: Table 5, minimum concentration needed to prevent C3 activation
Experimental: Various peptides were tested for their ability to prevent the IgA-α1AT complex from activating the alternative complement (C3) pathway.
The method of measuring the capacity to activate the alternative complement pathway by the non-immune IgA-α1AT complex and the subsequent inhibition of this activation by anti-rheumatic peptides is described below.
This method was based on the method described by Riches and Stanworth, Immunology Letters, 1980, 1, 363,366, with modification to miniaturise it thus allowing the assay to be carried out on microtitre plates.
The initial observation by Platts-Mills and Ishizaka (J Immunol. (1974) 113, 348,358) that low dilutions of fresh normal human serum, from which calcium had been removed by chelation with 10mM EGTA to block the classical complement pathway, caused greater than 90% haemolysis of unsensitised rabbit erythrocytes when incubated at 37°C was employed in this assay.
The non-immune complex IgA-α1AT had been shown in the past to be the only known soluble complex to activate the alternative pathway complement and […] of the rabbit erythrocytes. This inhibition required biologically active complex.
The buffers solutions required in this assay were (a) Total lysis buffer (1% Triton100 in ultra pure water), (b) Alternative pathway complement fixation diluent (APCFD) which was:- • 83 volumes CFD, DH 7.2 (1 oxoid tablet: 100ml UPW) • 10 volumes 0.1M EGTA pH 7.2 • 7 volumes MgCl2 pH 7.2
Blood was obtained by venipuncture from a healthy human individual. The blood was allowed to clot for 1 hour at room temperature and then stored overnight at 4°C. The serum was removed and stored at -70°C in lml aliquots. For use, the serum was defrosted and 100µl of 0.1m EGTA pH 7.2 and 70µl O.lm MgCl2 pH 7.2 was added.
Rabbit red blood cells (RBC) were obtained by venipuncture of a healthy rabbit and collected into 0.1M citrate buffer pH 6.2. The RBC were washed 3 times in citrate buffer and the cells were stored in this buffer which was changed every week. It was possible to store cells in this way for 3 weeks. Peptides
The peptides were synthesised as described in Example 1 and made up in UPW to lmM. They were kept frozen at -70°C prior to use.
This was prepared as previously described in Example 2. It was kept frozen in small aliquots prior to use.
Using a round bottomed welled flexible microtitre plate 100µl neat serum (with added EGTA and MgCl2) was added to the first wells in duplicate. This was double diluted out, with APCFD to give a volume of 50µl well. 8 test wells (+ duplicates) were sufficient. 8 wells were prepared as a positive control - (100µl 1% Triton/UPW). 8 wells were prepared as a negative control - (100µl APCFD (Blank)).
50µl of APCFD was added to the test wells and 50µl of 1% rabbit RBC was added to all wells. The plate was then incubated at 37°C for 30 minutes and then centrifuged for 10 minutes at 2000 rpm.
75µl of the supernatant was carefully removed and plated onto a flat bottom welled microtitre plate. The plates were then read at 410nm interference, 690nm reference. The zero or blank value was calculated as the mean value of negative control wells and using the mean of the positive control wells, the percentage lysis for serum dilutions was calculated. In future assays the serum dilution in which lysis was approx. 80% of Rb RBC was used. This was usually in the range 1:4 - 1:6 dilution (ie. lml serum : 4ml APCFD - 6ml APCFD).
A 1:1 dilution of IgA-α1AT complex was made with twice concentrated APCFD. 100µl of this 1:1 dilution of complex was added to the first wells in duplicate. This was double diluted out with APCFD to give 50 µl per well. 50µl of the predetermined dilution of serum (see (i) above) was added to each well. Positive and negative control wells as described in (a) above and wells containing serum alone were used as controls. The plates were incubated at 37°C for 30 minutes and then centrifuged at 2000 rpm for 1 minute. […]

IgA-α1AT complex = test: HPLC analysis of in vitro dissociation of purified IgA-α1AT complex; assay type: biochemical, human; conditions: 90 minutes at 37°C; for HPLC / HPLC %: minimum peptide concentration giving complex : free IgA ratio at 20% (base-line 14%); for HPLC %: Table 1; for HPLC minimum: Table 5, minimum concentration giving complex : free IgA ratio at 20% (base-line 14%), >500µM = no complex dissociation at highest concentration tested
Experimental: The ability of the peptides of the invention to dissociate purified IgA-α1AT complex in vitro was tested as described below. The anti-rheumatic drug D-penicillamine and other synthetic peptides were used as controls. […] The sample was monitored at wavelength 206nm at a flow rate of 1ml/minute with phosphate buffer (0.1M) pH 7.1. […] They represent the ability of the peptides to dissociate the IgA-α1AT complex in vitro. In these experiments, the base-lines level comprises a complex : free IgA ratio of 14% . The minimum concentration of peptide taken to produce a positive dissociation effect is that which results in a complex: free IgA ratio at 20%. In the results tables, all the peptide values are expressed in µMoles.

[2] = tested on: mouse macrophage cell line (PU 518); test: Macrophage inhibition assay: IgA-α1AT complex-stimulated release of lysosomal enzymes; assay type: cell-based; conditions: Table 5; head prints no unit, b70 says all values of the results tables are in µMoles; concentration needed to prevent 50% release of β-glucoromidase
Experimental: A mouse macrophage cell line (PU 518) was stimulated to release lysosomal enzymes by the addition of purified human IgA-α1AT complex. The degree to which this release was then inhibited by the peptides or other drugs was investigated, with the degree of inhibition being indicative of activity; the concentration of peptide or other test drugs giving 50% inhibition being recorded. Briefly the method was as follows:
25µl of peptide or drug was double diluted in […] + 10% foetal calf serum (FCS) in a sterile tissue culture 96 well plate. 25µl of IgA-α1AT complex in RPMI 1640 +10% FCS at about 0.2mg/ml was then added to all wells. 50µl of cells at a concentration of 2 x 10^6 cells/ml in RPMI 1640 + 10% FCS was then added to each well.
Control wells of cells alone and cells + IgA-α1AT complex were also prepared. The plate was then gently mixed and incubated overnight (16hr) at 37°C in a 4% CO2 atmosphere. Plates were then centrifuged at 1200 rpm for 10 minutes in a bench top centrifuge.
40µl of supernatant was then taken from each well and added to a 96 well polystyrene assay plate, to which was added 40µl of 160mM acetate buffer (pH 4.3) containing 2mM phenolphthalein-β-D-glucuronic acid. To obtain a standard curve, dilutions of phenolphthalein in acetate buffer from 100-5µg/ml were also added to separate wells in the assay plate.
The plates were then incubated at 37°C for 4 hours before 150µl of 0.2M glycine/NaOH buffer (pH 10.6) containing 0.2M NaCl was added to stop the reaction.
Plates were then shaken for 3 minutes before the optical density at 570nm was read on a plate reader, and the amount of β-D-glucuronic acid released from the cells calculated. The concentration of peptide or drug giving 50% inhibition of release was then noted.
The results for the macrophage inhibition assays are expressed as the concentration needed to prevent 50% release of β-glucoromidase.

HCKKE-NH2 [Peptide 150, HCKKEnh2]
C' ([1]; Table 4): 8 µM | HPLC (IgA-α1AT complex; Table 4): 50 µM

HCKKGD-NH2 [Peptide 121, HCKKGDnh2]
C' ([1]; Table 4): 62 µM | HPLC (IgA-α1AT complex; Table 4): 125 µM

HCKKGE-NH2 [Peptide 151, HCKKGEnh2]
C' ([1]; Table 4): 16 µM | HPLC (IgA-α1AT complex; Table 4): 50 µM

HCKKGGD-NH2 [Peptide 122, HCKKGGDnh2]
C' ([1]; Table 4): 31 µM | HPLC (IgA-α1AT complex; Table 4): 50 µM

HCKKGGE-NH2 [Peptide 152, HCKKGGEnh2]
C' ([1]; Table 4): 125 µM | HPLC (IgA-α1AT complex; Table 4): 10 µM

HDCKK-NH2 [Peptide 198, HDCKKnh2]
C' ([1]; Table 1): 3.9 µM | HPLC % (IgA-α1AT complex): 10 µM

HECKK-NH2 [Peptide 204, HECKKnh2]
C' ([1]; Table 1): <1.95 µM | HPLC % (IgA-α1AT complex): 10 µM

HFCKK-NH2 [Peptide 208, HFCKKnh2]
C' ([1]; Table 1): 3.9 µM | HPLC % (IgA-α1AT complex): 10 µM

HFCKK-NH2 [Peptide 209, HFCKKnh2]
C' ([1]; Table 1): 3.9 µM

HPCKK-NH2 [Peptide 201, HPCKKnh2]
C' ([1]; Table 1): 3.9 µM | HPLC % (IgA-α1AT complex): 10 µM

HYCKK-NH2 [Peptide 199, HYCKKnh2]
C' ([1]; Table 1): 3.9 µM | HPLC % (IgA-α1AT complex): 10 µM

IQHCKK-NH2 [Peptide 134, IQHCKKnh2]
C' ([1]; Table 3): 62 µM | HPLC (IgA-α1AT complex; Table 3): 10 µM

IVLVDNKCKCAR [Peptide 89, reference compound]
C' minimum [1]: 125 µM | HPLC minimum (IgA-α1AT complex): 50 µM

NIQHCKK-NH2 [Peptide 135, NIQHCKKnh2]
C' ([1]; Table 3): 31 µM | HPLC (IgA-α1AT complex; Table 3): 10 µM

QHCKK-NH2 [Peptide 133, QHCKKnh2]
C' ([1]; Table 3): 31 µM | HPLC (IgA-α1AT complex; Table 3): 10 µM

Substance P [Peptide 36, reference compound]
IC50 [2]: > 500 µM | C' minimum [1]: >500 µM | HPLC minimum (IgA-α1AT complex): >500 µM
